Each block holds one molecule with its values, some of them ahead of it.
Key:
[1] = Moisture retention in high-humidity environment; assay type: physicochemical; settings: relative humidity 92.9%, 30° C., 3 days
Procedure: The above operations were carried out at a constant temperature of 30° C.

[2] = Moisture retainability in low-humidity environment; assay type: physicochemical; settings: relative humidity 20%, 20° C., 3 days
Procedure: The above operations were carried out at a constant temperature of 20° C.
The sample weight was measured periodically and he moisture retention percentagewas calculated from the following equation.
Moisture retention percentage(%)=(A-B)/B×100 (wherein A is sample weight when it became constant, and B is dry sample weight).

[3] = system: mushroom-derived tyrosinase; assay: Tyrosinase-inhibitory activity; assay type: biochemical; settings: relative values to kojic acid = 1.0; 0.1 ml of 300 μg/ml solution; L-tyrosine; 25° C., 10 minutes, pH 6.5
Procedure: Absorbance at 475 nm was measured by an ultraviolet visible spectrophotometer. The above process was repeated without adding the polysaccharide, and the absorbance was measured in the similar way and given as blank. The above process was further carried out using the polysaccharide obtained in Example 3. […] The tyrosinase inhibition rate was calculated from the following equation. […] Tyrosinase inhibition rate=(OD2 -OD1)/OD2 ×100 wherein OD1 is absorbance at 475 nm in case the specimen was added, and OD2 is absorbance at 475 nm in case no specimen was added (blank).

skin = settings: 4% (w/v) aqueous solution

Material retention percentage (moisture retention percentage) [1]: 139.1%
Moisture retention [2]: 6.9%
SMILES: OCC(O)CO [Glycerol, glycerol]

Tyrosinase inhibition rate [3]: 1.0
SMILES: O=c1cc(CO)occ1O [Kojic acid, kojic acid]

SMILES: CCCCCCCCCCCCOS(=O)(=O)[O-].[Na+] [sodium lauryl sulfate]
primary irritation index (skin): 4.0

Source: patent publication US5989874A, “Humectant, antistatic agent, dispersant and film-forming agent having polysaccharide as active principle, preparation process of polysaccharides, and Kliebsiella ocytoca TNM-3 strain” (Tayca Corporation, priority 1995, dated 1999)
